Measurements reported in patent publication US7282507B2, “Indole derivatives as selective androgen receptor modulators (SARMS)” (Janssen Pharmaceutica N.V., priority 2004, dated 2007).
Values joined by “and” are separate entries in the source; they are usually repeats but may differ in a detail not shown here. Identical values can stand only once.

Tests used:
[1] = molecular target: T1, androgen receptor (AdEasy+rAR, L929 cells) (Rattus norvegicus, UniProt P15207); assay: L929 Androgen Receptor Functional Assay, Adenovirus Transduction; format: cell-based; conditions: for % Activity, L929 androgen receptor functional assay / EC50: agonist testing; for % Inhibition, L929 androgen receptor functional assay: antagonist testing with R1881, 3000 nM; for inhibition at 3 µM: L929, antagonist testing with R1881, 3000 nM; for IC50: antagonist testing with R1881
T1 construct: expressed in transfected cells; host or cells: L929 cells transduced with adenovirus AdEasy+rAR
T1 sequence (P15207 1-902): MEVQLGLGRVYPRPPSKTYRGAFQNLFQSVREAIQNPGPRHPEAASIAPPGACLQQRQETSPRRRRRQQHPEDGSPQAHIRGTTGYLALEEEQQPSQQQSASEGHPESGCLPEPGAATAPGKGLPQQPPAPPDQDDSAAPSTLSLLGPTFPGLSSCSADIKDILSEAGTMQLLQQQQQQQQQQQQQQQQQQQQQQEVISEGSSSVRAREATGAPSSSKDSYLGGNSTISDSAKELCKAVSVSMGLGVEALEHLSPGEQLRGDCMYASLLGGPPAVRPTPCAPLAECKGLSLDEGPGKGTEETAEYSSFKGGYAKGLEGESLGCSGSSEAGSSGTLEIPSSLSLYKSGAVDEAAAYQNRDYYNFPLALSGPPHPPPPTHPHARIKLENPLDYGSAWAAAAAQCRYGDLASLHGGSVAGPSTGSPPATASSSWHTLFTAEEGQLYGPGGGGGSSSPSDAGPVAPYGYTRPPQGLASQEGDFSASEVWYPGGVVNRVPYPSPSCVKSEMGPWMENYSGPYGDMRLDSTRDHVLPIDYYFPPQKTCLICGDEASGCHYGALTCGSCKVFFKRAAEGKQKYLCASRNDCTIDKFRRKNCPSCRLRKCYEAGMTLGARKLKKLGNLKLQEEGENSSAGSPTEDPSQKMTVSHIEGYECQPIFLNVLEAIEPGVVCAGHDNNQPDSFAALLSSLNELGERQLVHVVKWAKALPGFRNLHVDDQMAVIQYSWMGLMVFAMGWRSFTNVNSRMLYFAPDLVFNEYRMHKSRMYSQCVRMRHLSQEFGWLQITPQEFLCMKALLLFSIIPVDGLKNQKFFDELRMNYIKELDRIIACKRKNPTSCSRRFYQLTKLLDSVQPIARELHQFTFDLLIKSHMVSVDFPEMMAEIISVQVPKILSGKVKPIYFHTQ
Description: L929 cells were plated in 96-well plates at 20,000 cells per well, in DMEM/F12 (GIBCO) containing 10% (v/v) charcoal-treated fetal bovine serum (Hyclone) and lacking phenol red. The plates were then incubated overnight at 37° C. in 5% (v/v) humidified CO2.
Test compound dilutions were prepared in 100% (v/v) DMSO, if necessary. Each dilution was made to 1250× the final desired assay concentration.
First, 2 mL of DMEM/F12 lacking phenol red was pipetted into the wells of a 2-mL 96-well assay block. Next, 4 μL of the 1250× test compound dilutions were pipetted into each well of the assay block. The mixtures within the well were then carefully mixed by pipette.
In a 15 mL or 50 mL sterile centrifuge tube, a 2.5 nM (2.5×) dilution of R1881 (methyl-trienolone) in DMEM/F12 lacking phenol red was prepared.
In a second 15 mL or 50 mL centrifuge tube a solution containing an equal volume of DMEM to the first and an equal volume of 100% (v/v) DMSO to the volume of R1881 used in the first tube was prepared.
In a 15 mL or 50 mL sterile centrifuge tube, a dilution in DMEM/F12 of the adenovirus AdEasy+rAR at an moi of 1:500 per well was prepared.
The medium was removed from the 96-well plates by inversion and dried, inverted, very briefly. As soon as possible after medium removal, 40 μL of the diluted unlabeled test compound was added to each well, in duplicate. To each well designated for antagonist testing was added 40 μL of the 2.5 nM R1881 dilution to the wells for antagonist testing. To each well designated for agonist testing was added 40 μL of the DMSO dilution. Then 20 μL of the diluted adenovirus were added to all wells. The plates were incubated for 48 hours at 37° C. in 5% (v/v) humidified CO2.
To each well was added 100 μL of Steady-Glo luciferase assay substrate (Promega) and the plates were placed on a rotary shaker for 1 min. The plates were then incubated at room temperature in the dark for one hour. The contents of each well were then transferred to a white microtiter plate (Packard) and read on a Luminoskan Ascent (Thermo Lab Systems).
L929 AR percent activity was determined by testing dilutions of the test compound using a concentration of 3000 nM unless otherwise noted. L929 percent inhibition was determined by testing dilutions of the test compound using a concentration of 3000 nM. […] Luciferase activity per well were measured and EC50s and IC50s determined by linear regression.

[2] = test system: testosterone-enhanced ventral prostate and seminal vesicle weights; assay: Ventral Prostate and Seminal Vesicle Weight in vivo Assay; set-up: species or system rat; conditions: immature castrated male Sprague Dawley rats, once daily for five days, usually orally 40 mg/kg, with testosterone propionate 2 mg/kg s.c. Note: key: 'active' if the non weight adjusted prostate weight was ≦40 mg or the % Inhibition prostate weight, body weight adjusted was ≧40% @ 2 mg/day dosage; ID50's, if determined, of ≦15 mg/day also indicated an 'active' compound; listed herein as 'inactive' as they did not meet the specified criteria defined above.
Description: Immature (approximately 50 g) castrated male Sprague Dawley rats (Charles River) were treated once daily for five days with test compound (usually given orally at 40 mg/kg in a volume of 0.3 mL, in 30% cyclodextrin or 0.5% methylcellulose vehicle) and with testosterone propionate (given subcutaneously by injection at the nape of the neck at 2 mg/kg, in a volume of 0.1 mL in sesame oil). On the sixth day, the rats were euthanized by asphyxiation in carbon dioxide. Ventral prosatates and seminal vesicles were removed and their wet weights determined.
A test compound was said to be “active” if the non weight adjusted prostate weight was ≦40 mg or the % Inhibition prostate weight, body weight adjusted was ≧40% @ 2 mg/day dosage.

Structure (SMILES) | active / inactive: inhibition of testosterone-enhanced prostate weight [2] | further results
CCSCC(C)(O)c1cc2cc(C#N)c(C(F)(F)F)cc2[nH]1 (stereo not shown) [Compound 218, 2-(2-Ethylsulfanyl-1-hydroxy-1-methyl-ethyl)-6-trifluoromethyl-1H-indole-5-carbonitrile] | inactive | % Activity, L929 androgen receptor functional assay ([1]; 3000 nM): 0%; % Inhibition, L929 androgen receptor functional assay ([1]; 3 µM): 62%
CC(O)(CS(=O)(=O)CC(F)(F)F)c1cc2cc([N+](=O)[O-])c(C(F)(F)F)cc2[nH]1 (racemic) [Compound 208] | active | % Activity, L929 androgen receptor functional assay ([1]; 3000 nM): 1%
CC(O)(CS(=O)(=O)CC(F)(F)F)c1[nH]c2cc([N+](=O)[O-])c(C(F)(F)F)cc2c1Cl (stereo not shown) [Compound 207] | active | inhibition at 3 µM [1]: 101%; EC50 [1]: > 8000 nM; % Activity, L929 androgen receptor functional assay ([1]; 3000 nM, 3 µM): 1% and −1%; IC50 [1]: 492 nM; % Inhibition, L929 androgen receptor functional assay [1]: 101%
CCSCC(O)(CC)c1cc2cc(C#N)c(C(F)(F)F)cc2[nH]1 (stereo not shown) [Compound 223] | active | inhibition at 3 µM [1]: 100%; EC50 [1]: > 8000 nM; % Activity, L929 androgen receptor functional assay ([1]; @ 8000 nM): 0 @ 8000 nM %; IC50 [1]: 277 nM
CCS(=O)(=O)CC(C)(O)c1cc2cc(Cl)c(C(F)(F)F)cc2[nH]1 (racemic) [Compound 404] | active | –
CCSCC(O)c1[nH]c2cc(C(F)(F)F)c(C#N)cc2c1Br (racemic) [Compound 413] | inactive | –
CCSCC(C)(O)c1cc2nc(C#N)ccc2[nH]1 (racemic) [Compound 6] | inactive | –
CCSCC(C)(O)c1cc2cc(C#N)c(C(F)(F)F)cc2n1COC (racemic) [Compound 322] | inactive | –
CC(C)(O)c1cc2cc(Br)ccc2[nH]1 [Compound 294] | inactive | –
CC(C)(O)c1[nH]c2cc(C(F)(F)F)c(C#N)cc2c1Cl [Compound 287] | inactive | –
CCS(=O)(=O)CC(C)(O)c1cc2cc([N+](=O)[O-])c(C(F)(F)F)cc2n1C (single isomer, unassigned) [Compound 250] | active | –
CC(O)(c1cc2cc(C#N)c(C(F)(F)F)cc2[nH]1)C(F)(F)F (stereo not shown) [Compound 329, 2-(2,2,2-Trifluoro-1-hydroxy-1-methyl-ethyl)-6-trifluoromethyl-1H-indole-5-carbonitrile] | active | –
CCSCC(O)(c1cc2cc(C#N)c(C(F)(F)F)cc2[nH]1)C(F)(F)F (racemic) [Compound 327] | active | –
CC(O)(COc1ccc(C#N)cc1)c1cc2cc(C#N)c(C(F)(F)F)cc2[nH]1 (stereo not shown) [Compound 426, 2-[2-(4-Cyano-phenoxy)-1-hydroxy-1-methyl-ethyl]-6-trifluoromethyl-1H -indole-5-carbonitrile] | inactive | –
CC(O)(COc1ccc(C#N)c(C(F)(F)F)c1)c1cc2cc(C#N)c(C(F)(F)F)cc2[nH]1 (stereo not shown) [Compound 429, 2-[2-(4-Cyano-3-trifluoromethyl-phenoxy)-1-hydroxy-1-methyl-ethyl]-6-trifluoromethyl-1H-indole-5-carbonitrile] | inactive | –
CC(C)(O[Si](C)(C)C)c1cc2cc(Cl)c(C(F)(F)F)cc2n1S(C)(=O)=O [Compound 270] | inactive | –
CCS(=O)(=O)CC(O)c1cc2cc(C#N)c(C(F)(F)F)cc2[nH]1 (racemic) [Compound 412] | inactive | –
CCSCC(C)(O)c1cc2cc(C#N)c(C)c(I)c2[nH]1 (racemic) [Compound 415] | inactive | –
CC(C)(O)c1[nH]c2cc(C(F)(F)F)c([N+](=O)[O-])cc2c1Br [Compound 277] | active | –
CCSCC(C)(O)c1[nH]c2cc(C(F)(F)F)c(C#N)cc2c1I (single isomer, unassigned) [Compound 349] | active | –
CCS(=O)(=O)CC(C)(O)c1cc2cc(C#N)c(C(F)(F)F)cc2[nH]1 (racemic) [Compound 407] | inactive | –
CC(O)(c1[nH]c2cc(C(F)(F)F)c(C#N)cc2c1C#C[Si](C)(C)C)C(F)(F)F (single isomer, unassigned) [Compound 347] | active | –
CCSCC(O)c1[nH]c2cc(C(F)(F)F)c(C#N)cc2c1I (racemic) [Compound 411] | inactive | –
CCSCC(C)(O)c1cc2cc(C#N)c(C(F)(F)F)cc2n1CC (racemic) [Compound 243] | active | –
CCSCC(C)(O)c1[nH]c2cc(C(F)(F)F)c([N+](=O)[O-])cc2c1I (single isomer, unassigned) [Compound 244] | active | –
CC[S+]([O-])CC(C)(O)c1[nH]c2cc(C(F)(F)F)c(C#N)cc2c1C (mixture of isomers) [Compound 245] | inactive | –
CC(C)(O)c1[nH]c2cc(C(F)(F)F)c(Cl)cc2c1I [Compound 279] | inactive | –
C#Cc1c(C(C)(O)CSCC)[nH]c2cc(C(F)(F)F)c(C#N)cc12 (racemic) [Compound 326] | inactive | –
